Reference: ChEMBL document CHEMBL1759982, “Hybrid compounds as new Bcr/Abl inhibitors” (Bioorg Med Chem Lett, 2011)
Activity calls are given as the source filed them. No cut-off for these calls is given here.

Assays:
K562 [1] = experiment: Antiproliferative activity against human K562 cells; format: functional, cell-based
[2] = Antiproliferative activity against human KU812 cells; format: functional, cell-based
K562 [3] = experiment: Antiproliferative activity against human imatinib-resistant K562 cells; format: functional, cell-based
Bcr/Abl fusion protein = Bcr/Abl fusion protein (Homo sapiens, UniProt P00519); experiment: Inhibition of Bcr/Abl by FRET-based Z-lyte assay; format: protein assay
Sequence of Bcr/Abl fusion protein (P00519 whole entry, the tested form may be a part): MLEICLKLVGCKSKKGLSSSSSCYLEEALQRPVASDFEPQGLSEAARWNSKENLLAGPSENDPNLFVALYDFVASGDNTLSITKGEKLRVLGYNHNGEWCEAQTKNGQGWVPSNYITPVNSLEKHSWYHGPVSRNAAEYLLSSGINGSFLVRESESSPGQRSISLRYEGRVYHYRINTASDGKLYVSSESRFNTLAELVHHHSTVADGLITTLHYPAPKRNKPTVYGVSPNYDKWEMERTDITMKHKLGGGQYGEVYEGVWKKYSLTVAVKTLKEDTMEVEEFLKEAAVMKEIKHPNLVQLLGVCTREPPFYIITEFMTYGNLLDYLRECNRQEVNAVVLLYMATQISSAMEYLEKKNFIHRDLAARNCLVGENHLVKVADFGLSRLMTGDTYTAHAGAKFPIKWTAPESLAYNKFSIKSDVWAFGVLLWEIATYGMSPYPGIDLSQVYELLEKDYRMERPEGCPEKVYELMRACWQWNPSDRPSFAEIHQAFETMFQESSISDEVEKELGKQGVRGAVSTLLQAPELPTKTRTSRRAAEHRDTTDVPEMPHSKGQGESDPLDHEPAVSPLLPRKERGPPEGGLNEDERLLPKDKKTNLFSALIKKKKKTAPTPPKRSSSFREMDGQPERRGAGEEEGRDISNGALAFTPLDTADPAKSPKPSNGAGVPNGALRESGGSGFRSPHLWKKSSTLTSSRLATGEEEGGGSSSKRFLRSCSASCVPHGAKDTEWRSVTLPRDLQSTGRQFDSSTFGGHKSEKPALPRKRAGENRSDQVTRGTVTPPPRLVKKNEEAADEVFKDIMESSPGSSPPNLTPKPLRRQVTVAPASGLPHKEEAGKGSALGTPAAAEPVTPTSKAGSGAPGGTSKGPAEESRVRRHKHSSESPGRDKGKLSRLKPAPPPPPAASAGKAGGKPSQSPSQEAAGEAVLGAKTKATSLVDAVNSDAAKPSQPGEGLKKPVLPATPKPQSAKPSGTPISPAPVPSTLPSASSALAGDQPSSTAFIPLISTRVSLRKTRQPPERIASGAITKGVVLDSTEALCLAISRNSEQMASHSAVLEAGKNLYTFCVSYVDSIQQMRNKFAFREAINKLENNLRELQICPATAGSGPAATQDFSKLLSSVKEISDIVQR
Sequence of Bcr/Abl fusion protein (P11274 whole entry, further chain, the tested form may be a part): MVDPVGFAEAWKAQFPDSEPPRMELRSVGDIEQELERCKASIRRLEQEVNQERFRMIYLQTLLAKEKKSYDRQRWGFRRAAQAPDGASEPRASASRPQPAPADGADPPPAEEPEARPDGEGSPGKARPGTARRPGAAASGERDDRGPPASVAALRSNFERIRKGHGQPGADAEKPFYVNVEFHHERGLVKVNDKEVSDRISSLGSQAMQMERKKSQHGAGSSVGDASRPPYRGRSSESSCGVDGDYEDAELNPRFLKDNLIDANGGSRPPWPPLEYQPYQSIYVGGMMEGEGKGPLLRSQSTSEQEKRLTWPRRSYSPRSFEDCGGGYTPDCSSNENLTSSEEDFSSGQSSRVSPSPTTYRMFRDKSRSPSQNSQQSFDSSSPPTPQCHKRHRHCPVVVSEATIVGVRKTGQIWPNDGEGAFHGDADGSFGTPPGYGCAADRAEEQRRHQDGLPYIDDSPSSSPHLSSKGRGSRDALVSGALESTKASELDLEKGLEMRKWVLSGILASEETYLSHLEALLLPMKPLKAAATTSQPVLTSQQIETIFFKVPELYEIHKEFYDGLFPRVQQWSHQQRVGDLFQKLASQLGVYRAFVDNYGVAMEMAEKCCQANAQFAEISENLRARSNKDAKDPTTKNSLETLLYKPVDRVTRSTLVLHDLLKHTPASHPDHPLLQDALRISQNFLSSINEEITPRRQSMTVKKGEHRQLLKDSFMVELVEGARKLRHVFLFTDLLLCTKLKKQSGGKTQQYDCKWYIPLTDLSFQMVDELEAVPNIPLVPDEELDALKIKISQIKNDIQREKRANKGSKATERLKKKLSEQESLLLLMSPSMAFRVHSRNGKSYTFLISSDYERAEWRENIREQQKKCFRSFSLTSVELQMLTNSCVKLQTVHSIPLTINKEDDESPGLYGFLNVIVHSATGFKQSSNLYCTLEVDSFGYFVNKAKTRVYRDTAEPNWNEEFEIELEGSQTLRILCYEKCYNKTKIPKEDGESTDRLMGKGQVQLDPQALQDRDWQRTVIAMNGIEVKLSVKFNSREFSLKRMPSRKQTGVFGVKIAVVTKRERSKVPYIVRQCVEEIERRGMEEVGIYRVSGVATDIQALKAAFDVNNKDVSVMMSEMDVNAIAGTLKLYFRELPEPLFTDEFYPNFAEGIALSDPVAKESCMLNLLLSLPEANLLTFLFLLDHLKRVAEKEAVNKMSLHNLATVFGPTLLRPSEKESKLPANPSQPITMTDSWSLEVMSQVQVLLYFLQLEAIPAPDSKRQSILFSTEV

[4] = target: Bcr/Abl fusion protein (Homo sapiens) (UniProt P00519+P11274); experiment: Inhibition of Bcr/Abl autophosphorylation in human K562 cells after 4 hrs by Western blotting; format: cell-based
Sequence of Bcr/Abl fusion protein (Homo sapiens) (P00519 whole entry, looked up, the tested form may be a part): as the sequence (P00519 whole entry, the tested form may be a part) above
Sequence of Bcr/Abl fusion protein (Homo sapiens) (P11274 whole entry, looked up, the tested form may be a part): as the sequence (P11274 whole entry, further chain, the tested form may be a part) above

K562 [5] = experiment: Cell cycle arrest in human K562 cells assessed as accumulation at G0/G1 phase at 20 nM by Flow cytometry (reference value: 49.42%); format: functional
K562 [6] = experiment: Cell cycle arrest in human K562 cells assessed as accumulation at G0/G1 phase at 50 nM by Flow cytometry (reference value: 49.42%); format: functional
K562 [7] = experiment: Cell cycle arrest in human K562 cells assessed as accumulation at G0/G1 phase at 100 nM by Flow cytometry (reference value: 49.42%); format: functional
K562 [8] = experiment: Cell cycle arrest in human K562 cells assessed as accumulation at S phase at 20 nM by Flow cytometry (reference value: 46.15%); format: functional
K562 [9] = experiment: Cell cycle arrest in human K562 cells assessed as accumulation at S phase at 50 nM by Flow cytometry (reference value: 46.15%); format: functional
K562 [10] = experiment: Cell cycle arrest in human K562 cells assessed as accumulation at S phase at 100 nM by Flow cytometry (reference value: 46.15%); format: functional
K562 [11] = experiment: Cell cycle arrest in human K562 cells assessed as accumulation at G2/M1 phase at 20 nM by Flow cytometry (reference value: 4.43%); format: functional
K562 [12] = experiment: Cell cycle arrest in human K562 cells assessed as accumulation at G2/M1 phase at 50 nM by Flow cytometry (reference value: 4.43%); format: functional
K562 [13] = experiment: Cell cycle arrest in human K562 cells assessed as accumulation at G2/M1 phase at 100 nM by Flow cytometry (reference value: 4.43%); format: functional
K562 [14] = experiment: Induction of apoptosis in human K562 cells assessed as viable cells at 20 nM using annexin V-propidium iodide and annexin V staining by flow cytometry (reference value: 87.02%); format: functional; settings: read-out: Activity
K562 [15] = experiment: Induction of apoptosis in human K562 cells assessed as viable cells at 50 nM using annexin V-propidium iodide and annexin V staining by flow cytometry (reference value: 87.02%); format: functional; settings: read-out: Activity
K562 [16] = experiment: Induction of apoptosis in human K562 cells assessed as viable cells at 100 nM using annexin V-propidium iodide and annexin V staining by flow cytometry (reference value: 87.02%); format: functional; settings: read-out: Activity
K562 [17] = experiment: Induction of apoptosis in human K562 cells assessed as early apoptotic cells at 20 nM using annexin V-propidium iodide and annexin V staining by flow cytometry (reference value: 3.34%); format: functional
K562 [18] = experiment: Induction of apoptosis in human K562 cells assessed as early apoptotic cells at 50 nM using annexin V-propidium iodide and annexin V staining by flow cytometry (reference value: 3.34%); format: functional
K562 [19] = experiment: Induction of apoptosis in human K562 cells assessed as early apoptotic cells at 100 nM using annexin V-propidium iodide and annexin V staining by flow cytometry (reference value: 3.34%); format: functional
K562 [20] = experiment: Induction of apoptosis in human K562 cells assessed as late apoptotic cells at 20 nM using annexin V-propidium iodide and annexin V staining by flow cytometry (reference value: […]%); format: functional
K562 [21] = experiment: Induction of apoptosis in human K562 cells assessed as late apoptotic cells at 50 nM using annexin V-propidium iodide and annexin V staining by flow cytometry (reference value: […]%); format: functional
K562 [22] = experiment: Induction of apoptosis in human K562 cells assessed as late apoptotic cells at 100 nM using annexin V-propidium iodide and annexin V staining by flow cytometry (reference value: […]%); format: functional
K562 [23] = experiment: Induction of apoptosis in human K562 cells assessed as pre-necrotic cells at 20 nM using annexin V-propidium iodide and annexin V staining by flow cytometry (reference value: 1.42%); format: functional
K562 [24] = experiment: Induction of apoptosis in human K562 cells assessed as pre-necrotic cells at 50 nM using annexin V-propidium iodide and annexin V staining by flow cytometry (reference value: 1.42%); format: functional
K562 [25] = experiment: Induction of apoptosis in human K562 cells assessed as pre-necrotic cells at 100 nM using annexin V-propidium iodide and annexin V staining by flow cytometry (reference value: 1.42%); format: functional

Cc1ccc(NC(=O)c2ccc(CN3CCN(C)CC3)cc2)cc1Nc1nccc(-c2cccnc2)n1 [IMATINIB]
IC50 (K562 [1]): 380 nM | IC50 [2]: 337 nM | IC50 (K562 [3]): 6.05 nM

Cc1ccc(C(=O)Nc2cc(-c3cnn(C)c3)cc(C(F)(F)F)c2)cc1Nc1nc(-c2cccnc2)cs1
IC50 (Bcr/Abl fusion protein): 491 nM | IC50 (K562 [1]): 27 nM | IC50 [2]: 27.1 nM | IC50 (K562 [3]): 5380 nM

Cc1cn(-c2cc(NC(=O)c3ccc(C)c(Nc4nc(-c5cccnc5)cs4)c3)cc(C(F)(F)F)c2)cn1
IC50 (Bcr/Abl fusion protein): 671 nM | IC50 (K562 [1]): 28 nM | IC50 [2]: 30 nM | IC50 (K562 [3]): 1830 nM

Cc1cn(-c2cc(NC(=O)c3ccc(C)c(Nc4nc(-c5cccnc5)cs4)c3)cc(C(C)C)c2)cn1
IC50 (Bcr/Abl fusion protein): 177 nM | IC50 (K562 [1]): 31 nM | IC50 [2]: 51 nM | IC50 (K562 [3]): 2910 nM

Cc1ccc(C(=O)Nc2cc(-c3cn(C)nn3)cc(C(F)(F)F)c2)cc1Nc1nc(-c2cccnc2)cs1
IC50 (Bcr/Abl fusion protein): 277 nM | IC50 (K562 [1]): 57 nM | IC50 [2]: 90 nM | IC50 (K562 [3]): 3510 nM

Cc1cn(-c2cc(NC(=O)c3ccc(C)c(Nc4nc(-c5cccnc5)cs4)c3)cc(C34CC5CC(CC(C5)C3)C4)c2)cn1
IC50 (Bcr/Abl fusion protein): > 2000 nM | IC50 (K562 [1]): 1060 nM | IC50 [2]: 2800 nM | IC50 (K562 [3]): 11800 nM

Cc1cc(NC(=O)c2ccc(C)c(Nc3nc(-c4cccnc4)cs3)c2)cc(-n2cnc(C)c2)c1
IC50 (Bcr/Abl fusion protein): 774 nM | IC50 (K562 [1]): 449 nM | IC50 [2]: 871 nM | IC50 (K562 [3]): 3290 nM

CCc1ccc(C(=O)Nc2cc(-n3cnc(C)c3)cc(C(F)(F)F)c2)cc1Nc1nc(-c2cccnc2)cs1
IC50 (Bcr/Abl fusion protein): 5510 nM | IC50 (K562 [1]): 1600 nM | IC50 [2]: 945 nM | IC50 (K562 [3]): 2720 nM

Cc1cn(-c2cc(NC(=O)c3cccc(Nc4nc(-c5cccnc5)cs4)c3)cc(C(F)(F)F)c2)cn1
IC50 (Bcr/Abl fusion protein): 3780 nM | IC50 (K562 [1]): 3190 nM | IC50 [2]: 2730 nM | IC50 (K562 [3]): 1720 nM

Cc1cn(-c2cc(Cl)cc(NC(=O)c3ccc(C)c(Nc4nc(-c5cccnc5)cs4)c3)c2)cn1
IC50 (Bcr/Abl fusion protein): 1300 nM | IC50 (K562 [1]): 812 nM | IC50 [2]: 518 nM | IC50 (K562 [3]): 2360 nM

Cc1cn(-c2cc(NC(=O)c3ccc(C)c(Nc4nccc(-c5cccnc5)n4)c3)cc(C(F)(F)F)c2)cn1 [NILOTINIB]
IC50 (K562 [1]): 6.5 nM | IC50 [2]: 3.4 nM | IC50 (K562 [3]): 260 nM

Cc1ncn(-c2cc(NC(=O)c3ccc(C)c(Nc4nc(-c5cccnc5)cs4)c3)cc(C(F)(F)F)c2)n1
IC50 (Bcr/Abl fusion protein): 480 nM | IC50 (K562 [1]): 26 nM | IC50 [2]: 38 nM | IC50 (K562 [3]): 1630 nM

Cc1ccc(C(=O)Nc2cccc(C(F)(F)F)c2)cc1Nc1nc(-c2cccnc2)cs1
IC50 (Bcr/Abl fusion protein): > 10000 nM | IC50 (K562 [1]): 3000 nM | IC50 [2]: 1240 nM | IC50 (K562 [3]): 1440 nM

Cc1cn(-c2cc(NC(=O)c3ccc(C)c(Nc4nc(-c5cccnc5)cs4)c3)cc(C(C)(C)C)c2)cn1
IC50 (Bcr/Abl fusion protein): 20.1 nM | IC50 (K562 [1]): 10 nM | IC50 [2]: 11 nM | IC50 (K562 [3]): 640 nM | inhibition [4]: Active | Activity (K562 [5]): 55.19% | Activity (K562 [6]): 69.3% | Activity (K562 [7]): 75.53% | Activity (K562 [8]): 42.66% | Activity (K562 [9]): 30.45% | Activity (K562 [10]): 24.47% | Activity (K562 [11]): 2.15% | Activity (K562 [12]): 0.21% | Activity (K562 [13]): 0% | viability at 0.02 µM (K562 [14]): 95.7% | viability at 0.05 µM (K562 [15]): 73.8% | viability at 0.1 µM (K562 [16]): 56.7% | Activity (K562 [17]): 5.06% | Activity (K562 [18]): 6.87% | Activity (K562 [19]): 11.11% | Activity (K562 [20]): 8.15% | Activity (K562 [21]): 16.34% | Activity (K562 [22]): 27.04% | Activity (K562 [23]): 1.14% | Activity (K562 [24]): 3.11% | Activity (K562 [25]): 5.18%

Cc1ccc(C(=O)Nc2cc(-n3ccnc3)cc(C(F)(F)F)c2)cc1Nc1nc(-c2cccnc2)cs1
IC50 (Bcr/Abl fusion protein): 507 nM | IC50 (K562 [1]): 28 nM | IC50 [2]: 36 nM | IC50 (K562 [3]): 2140 nM
